In patent publication US8946270B2, “Amido-pyridyl ether compounds and compositions and their use against parasites” (Merial Limited, priority 2011, dated 2015):
Read-outs that look alike come from different tables or passages of the source.

What was measured:
[1] = test system: Rhipicephalus sanguineus (Brown Dog Tick); assay: whole plant or invertebrate; conditions: for Contact SP Rhicicep PCT Mortality (%): 200 ppm; for mortality at 200 ppm: Rhipicephalus sanguineus, read-out: Contact SP Rhicicep PCT Mortality (%)
From the text: A solution of the test compound was used to coat the inner wall of glass vials and to treat two filter papers. Once dried, one filter paper was placed in the cap of the vial and the other in the bottom of the vial. Each treated vial was infested with 10 adult Rhipicephalus sanguineus (Brown Dog Tick). […]

[2] = test system: Haematobia irritans; assay: whole plant or invertebrate; conditions: 5 μg/cm^2
Protocol: A solution of the test compound was used to treat a filter paper contained within a Petri dish and the filter paper was allowed to evaporate to dryness. A small piece of absorbent cotton moistened with 10% sucrose and ten adult flies (Haematobia irritans or Stomoxys calcitrans) were added to each dish. Dishes were capped and held at room temperature. Assessments were performed at 4 and 24 hours after infestation in comparison with untreated controls.

SMILES	Contact SP Rhicicep PCT Mortality (%) ([1]; timepoint 4 hrs)	Contact SP Rhicicep PCT Mortality (%) ([1]; timepoint 24 hrs)	mortality at 200 ppm ([1]; timepoint 4 hrs)	mortality at 200 ppm ([1]; timepoint 24 hrs)	other results
COC(CNC(=O)c1ccc(COc2cccc(-c3cccc(F)c3)c2)cn1)OC [Compound 167]	100%	100%	–	–	–
CSCCNC(=O)c1ccc(COc2cccc(-c3cccc(F)c3)c2)cn1 [Compound 174]	90%	100%	–	–	–
CCC(C)CNC(=O)c1ccc(COc2cccc(-c3cccc(F)c3)c2)cn1 (stereo not shown) [Compound 181]	70%	90%	–	–	–
CCOc1cccc(OCc2ccc(C(=O)NCC(C)C)nc2)c1 [Compound 199]	100%	100%	–	–	–
O=C(NCC1CC1)c1ccc(CCOc2cccc(C(F)(F)F)c2)cn1 [Compound 208]	–	–	–	–	Contact SP Horn Fly PCT Mortality (%) ([2]; timepoint 4 hrs): 100%; Contact SP Horn Fly PCT Mortality (%) ([2]; timepoint 24 hrs): 100%
CC(C)CNC(=O)c1ccc(CCOc2cccc(C(F)(F)F)c2)cn1 [Compound 209]	–	–	90%	100%	–
CC(C)(C)CNC(=O)c1ccc(COCc2ccc(Cl)cc2)cn1 [Compound 216]	0%	60%	–	–	–
O=C(NCC1CCOCC1)c1ccc(CCOc2cccc(C(F)(F)F)c2)cn1 [Compound 220]	–	–	100%	100%	–
CCC(C)CNC(=O)c1ccc(CCOc2cccc(C(F)(F)F)c2)cn1 (stereo not shown) [Compound 221]	–	–	90%	100%	–
CC(C)CNC(=O)c1ccc(CCOc2ccc(F)c(OC(F)(F)F)c2)cn1 [Compound 222]	90%	100%	–	–	–
CC(C)CNC(=O)c1ccc(CCOc2cc(Cl)cc(Cl)c2)cn1 [Compound 225]	–	–	90%	100%	–
CC(C)CNC(=O)c1ccc(COCc2ccc(Cl)c(OC(F)(F)F)c2)cn1 [Compound 227]	100%	100%	–	–	–
CC(C)CNC(=O)c1ccc(COCc2ccc(F)c(OC(F)(F)F)c2)cn1 [Compound 228]	–	–	90%	90%	–
CC(C)CNC(=O)c1ccc(COCc2cc(F)cc(C(F)(F)F)c2)cn1 [Compound 229]	–	–	80%	80%	–
CC(C)CNC(=O)c1ccc(COCc2ccc(C(F)(F)F)cc2F)cn1 [Compound 232]	–	–	100%	100%	–
CC(C)CNC(=O)c1ccc(COCc2ccc(Cl)cc2)cn1 [Compound 234]	–	–	90%	90%	–
CC(C)CNC(=O)c1ccc(CCOc2ccc(Br)c(OC(F)(F)F)c2)cn1 [Compound 237]	–	–	90%	100%	–
CC(C)CCNC(=O)c1ccc(CCOc2cccc(OC(F)(F)F)c2)cn1 [Compound 240]	–	–	90%	90%	–
CCC(C)NC(=O)c1ccc(CCOc2cccc(OC(F)(F)F)c2)cn1 (stereo not shown) [Compound 241]	–	–	50%	90%	–
CCC(C)CNC(=O)c1ccc(CCOc2cccc(OC(F)(F)F)c2)cn1 (stereo not shown) [Compound 242]	–	–	70%	90%	–
O=C(NCC1CCOCC1)c1ccc(COc2ccc(C(F)(F)F)cc2Br)cn1 [Compound 256]	90%	100%	–	–	–
O=C(NCC1CCOCC1)c1ccc(COc2ccc(C(F)(F)F)cc2F)cn1 [Compound 257]	80%	90%	–	–	–
O=C(NCC1CCOCC1)c1ccc(COCc2ccc(Cl)cc2)cn1 [Compound 259]	–	–	80%	90%	–
O=C(NCC1CCOCC1)c1ccc(COCc2ccccc2Cl)cn1 [Compound 260]	90%	100%	–	–	–
O=C(NCC1CCOCC1)c1ccc(COCc2ccccc2C(F)(F)F)cn1 [Compound 266]	–	–	70%	90%	–
CC(C)CNC(=O)c1ccc(CCOc2cc(F)cc(C(F)(F)F)c2)cn1 [Compound 278]	70%	100%	–	–	–
CC(C)CNC(=O)c1ccc(COCc2ccc(C(F)(F)F)c(F)c2)cn1 [Compound 283]	100%	100%	–	–	–
CC(C)CNC(=O)c1ccc(COCc2ccc(C(F)(F)F)c(Cl)c2)cn1 [Compound 284]	90%	100%	–	–	–
CC(C)CNC(=O)c1ccc(COCc2cccc(F)c2F)cn1 [Compound 290]	80%	80%	–	–	–
